Measured values: ChEMBL document CHEMBL5614409, “Discovery of potent HIV-1 NNRTIs by CuAAC click-chemistry-based miniaturized synthesis, rapid screening and structure optimization” (Eur J Med Chem, 2024)

Target: Human immunodeficiency virus type 1 reverse transcriptase (Human immunodeficiency virus 1, UniProt Q72547)
Assay: Inhibition of HIV-1 reverse transcriptase assessed as reduction in biotin-dUTP incorporation incubated for 2 hrs in presence of template and viral nucleotides by ELISA
Conditions: not given

In order of rising IC50:
1. Cc1cc(C#N)cc(C)c1Oc1ccnc(NC2CCN(Cc3cn(Cc4ccc(C(N)=O)cc4)nn3)CC2)n1  55 nM
2. Cc1cc(/C=C/C#N)cc(C)c1Oc1ccnc(NC2CCN(Cc3cn(CC(=O)N4CCOCC4)nn3)CC2)n1  59 nM
3. Cc1cc(C#N)cc(C)c1Oc1ccnc(NC2CCN(Cc3cn(CC(=O)NC4CC4)nn3)CC2)n1  62 nM

Target: Human immunodeficiency virus type 1 reverse transcriptase (Human immunodeficiency virus 1) (UniProt Q72547)
Assay: Inhibition of HIV-1 reverse transcriptase incubated for 2 hrs in presence of template and viral nucleotides by ELISA relative to control
Set-up: concentration or dose not given beside the values
Conditions: concentration not given here

In order of rising inhibition:
1. Cc1cc(/C=C/C#N)cc(C)c1Oc1ccnc(NC2CCN(Cc3cn(CC(=O)N4CCOCC4)nn3)CC2)n1  89.4%
2. Cc1cc(C#N)cc(C)c1Oc1ccnc(NC2CCN(Cc3cn(CC(=O)NC4CC4)nn3)CC2)n1  93.4%
3. Cc1cc(C#N)cc(C)c1Oc1ccnc(NC2CCN(Cc3cn(Cc4ccc(C(N)=O)cc4)nn3)CC2)n1  94.1%

System: Human immunodeficiency virus 1
Assay: Antiviral activity against HIV1 IIIB infected in MT4 cells assessed as reduction in virus induced cytopathic effect incubated for 5 days by MTT method
Format: functional, organism-based
Conditions: Human immunodeficiency virus 1, IIIB, MT4, 120 h

In order of rising EC50:
1. Cc1cc(C#N)cc(C)c1Oc1ccnc(NC2CCN(Cc3cn(Cc4ccc(C(N)=O)cc4)nn3)CC2)n1  2 nM
2. Cc1cc(/C=C/C#N)cc(C)c1Oc1ccnc(NC2CCN(Cc3cn(CC(=O)N4CCOCC4)nn3)CC2)n1  2 nM
3. Cc1cc(C#N)cc(C)c1Oc1ccnc(NC2CCN(Cc3cn(CC(=O)NC4CC4)nn3)CC2)n1  3 nM

System: not listed separately
Assay: Cytotoxicity against human MT4 cells assessed as reduction in cell viability incubated for 5 days by MTT method
Format: toxicity, cell-based
Conditions: time 5 day

In order of falling CC50 at 120 h:
1. Cc1cc(C#N)cc(C)c1Oc1ccnc(NC2CCN(Cc3cn(CC(=O)NC4CC4)nn3)CC2)n1  31300 nM
2. Cc1cc(/C=C/C#N)cc(C)c1Oc1ccnc(NC2CCN(Cc3cn(CC(=O)N4CCOCC4)nn3)CC2)n1  30500 nM
3. Cc1cc(C#N)cc(C)c1Oc1ccnc(NC2CCN(Cc3cn(Cc4ccc(C(N)=O)cc4)nn3)CC2)n1  7690 nM

System: not listed separately
Assay: Selectivity index, ratio of CC50 for human MT4 cells to EC50 for antiviral activity against HIV1 IIIB infected in MT4 cells
Format: toxicity, cell-based
Conditions: read-out: Ratio CC50/EC50

In order of falling selectivity ratio:
1. Cc1cc(/C=C/C#N)cc(C)c1Oc1ccnc(NC2CCN(Cc3cn(CC(=O)N4CCOCC4)nn3)CC2)n1  13300
2. Cc1cc(C#N)cc(C)c1Oc1ccnc(NC2CCN(Cc3cn(CC(=O)NC4CC4)nn3)CC2)n1  12500

System: Human immunodeficiency virus 1
Assay: Antiviral activity against HIV1 IIIB harboring L100I mutant infected in MT4 cells assessed as reduction in virus induced cytopathic effect incubated for 5 days by MTT method
Format: functional, organism-based
Conditions: Human immunodeficiency virus 1, IIIB, MT4, 120 h

In order of falling EC50:
1. Cc1cc(C#N)cc(C)c1Oc1ccnc(NC2CCN(Cc3cn(CC(=O)NC4CC4)nn3)CC2)n1  150 nM
2. Cc1cc(/C=C/C#N)cc(C)c1Oc1ccnc(NC2CCN(Cc3cn(CC(=O)N4CCOCC4)nn3)CC2)n1  61 nM
3. Cc1cc(C#N)cc(C)c1Oc1ccnc(NC2CCN(Cc3cn(Cc4ccc(C(N)=O)cc4)nn3)CC2)n1  50 nM

System: Human immunodeficiency virus 1
Assay: Antiviral activity against HIV1 IIIB harboring K103 N mutant infected in MT4 cells assessed as reduction in virus induced cytopathic effect incubated for 5 days by MTT method
Format: functional, organism-based
Conditions: Human immunodeficiency virus 1, IIIB, MT4, 120 h

In order of falling EC50:
1. Cc1cc(C#N)cc(C)c1Oc1ccnc(NC2CCN(Cc3cn(CC(=O)NC4CC4)nn3)CC2)n1  19 nM
2. Cc1cc(C#N)cc(C)c1Oc1ccnc(NC2CCN(Cc3cn(Cc4ccc(C(N)=O)cc4)nn3)CC2)n1  7 nM
3. Cc1cc(/C=C/C#N)cc(C)c1Oc1ccnc(NC2CCN(Cc3cn(CC(=O)N4CCOCC4)nn3)CC2)n1  3 nM

System: Human immunodeficiency virus 1
Assay: Antiviral activity against HIV1 IIIB harboring Y181C mutant infected in MT4 cells assessed as reduction in virus induced cytopathic effect incubated for 5 days by MTT method
Format: functional, organism-based
Conditions: Human immunodeficiency virus 1, IIIB, MT4, 120 h

In order of falling EC50:
1. Cc1cc(C#N)cc(C)c1Oc1ccnc(NC2CCN(Cc3cn(CC(=O)NC4CC4)nn3)CC2)n1  30 nM
2. Cc1cc(/C=C/C#N)cc(C)c1Oc1ccnc(NC2CCN(Cc3cn(CC(=O)N4CCOCC4)nn3)CC2)n1  17 nM
3. Cc1cc(C#N)cc(C)c1Oc1ccnc(NC2CCN(Cc3cn(Cc4ccc(C(N)=O)cc4)nn3)CC2)n1  11 nM

System: Human immunodeficiency virus 1
Assay: Antiviral activity against HIV1 IIIB harboring Y188L mutant infected in MT4 cells assessed as reduction in virus induced cytopathic effect incubated for 5 days by MTT method
Format: functional, organism-based
Conditions: Human immunodeficiency virus 1, IIIB, MT4, 120 h

In order of falling EC50:
1. Cc1cc(/C=C/C#N)cc(C)c1Oc1ccnc(NC2CCN(Cc3cn(CC(=O)N4CCOCC4)nn3)CC2)n1  1260 nM
2. Cc1cc(C#N)cc(C)c1Oc1ccnc(NC2CCN(Cc3cn(CC(=O)NC4CC4)nn3)CC2)n1  399 nM
3. Cc1cc(C#N)cc(C)c1Oc1ccnc(NC2CCN(Cc3cn(Cc4ccc(C(N)=O)cc4)nn3)CC2)n1  97 nM

System: Human immunodeficiency virus 1
Assay: Antiviral activity against HIV1 IIIB harboring E138K mutant infected in MT4 cells assessed as reduction in virus induced cytopathic effect incubated for 5 days by MTT method
Format: functional, organism-based
Conditions: Human immunodeficiency virus 1, IIIB, MT4, 120 h

In order of rising EC50:
1. Cc1cc(/C=C/C#N)cc(C)c1Oc1ccnc(NC2CCN(Cc3cn(CC(=O)N4CCOCC4)nn3)CC2)n1  10 nM
2. Cc1cc(C#N)cc(C)c1Oc1ccnc(NC2CCN(Cc3cn(Cc4ccc(C(N)=O)cc4)nn3)CC2)n1  14 nM
3. Cc1cc(C#N)cc(C)c1Oc1ccnc(NC2CCN(Cc3cn(CC(=O)NC4CC4)nn3)CC2)n1  28 nM

System: Human immunodeficiency virus 1
Assay: Antiviral activity against HIV1 IIIB harboring F227L/V106A double mutant infected in MT4 cells assessed as reduction in virus induced cytopathic effect incubated for 5 days by MTT method
Format: functional, organism-based
Conditions: Human immunodeficiency virus 1, IIIB, MT4, 120 h

In order of rising EC50:
1. Cc1cc(/C=C/C#N)cc(C)c1Oc1ccnc(NC2CCN(Cc3cn(CC(=O)N4CCOCC4)nn3)CC2)n1  664 nM
2. Cc1cc(C#N)cc(C)c1Oc1ccnc(NC2CCN(Cc3cn(Cc4ccc(C(N)=O)cc4)nn3)CC2)n1  1040 nM
3. Cc1cc(C#N)cc(C)c1Oc1ccnc(NC2CCN(Cc3cn(CC(=O)NC4CC4)nn3)CC2)n1  3270 nM

System: Human immunodeficiency virus 1
Assay: Antiviral activity against HIV1 IIIB harboring RES056 mutant infected in MT4 cells assessed as reduction in virus induced cytopathic effect incubated for 5 days by MTT method
Format: functional, organism-based
Conditions: Human immunodeficiency virus 1, IIIB, MT4, 120 h

Going from `Cc1cc(C#N)cc(C)c1Oc1ccnc(NC2CCN(Cc3cn(Cc4ccc(C(N)=O)cc4)nn3)CC2)n1` to `Cc1cc(C#N)cc(C)c1Oc1ccnc(NC2CCN(Cc3cn(CC(=O)NC4CC4)nn3)CC2)n1`, the EC50 falls from > 7690 nM to 2630 nM. The second is the more potent here.

With `Cc1cc(/C=C/C#N)cc(C)c1Oc1ccnc(NC2CCN(Cc3cn(CC(=O)N4CCOCC4)nn3)CC2)n1` the EC50 was 1170 nM.
